Assay results reported in patent publication US8476253B2, “Amide derivative” (Daiichi Sankyo Company, Limited, priority 2009, dated 2013).
Counter-ions that a name gives are not always drawn. Like-named read-outs stand apart in the source and are kept apart here.

Tests used:
human NK2 receptor = biological target: T1, human NK2 receptor (Homo sapiens, UniProt P21452); assay: Test for binding to human NK2 receptor
T1 construct: expressed in transfected cells; host or cells: COS cells
T1 sequence (P21452 1-398): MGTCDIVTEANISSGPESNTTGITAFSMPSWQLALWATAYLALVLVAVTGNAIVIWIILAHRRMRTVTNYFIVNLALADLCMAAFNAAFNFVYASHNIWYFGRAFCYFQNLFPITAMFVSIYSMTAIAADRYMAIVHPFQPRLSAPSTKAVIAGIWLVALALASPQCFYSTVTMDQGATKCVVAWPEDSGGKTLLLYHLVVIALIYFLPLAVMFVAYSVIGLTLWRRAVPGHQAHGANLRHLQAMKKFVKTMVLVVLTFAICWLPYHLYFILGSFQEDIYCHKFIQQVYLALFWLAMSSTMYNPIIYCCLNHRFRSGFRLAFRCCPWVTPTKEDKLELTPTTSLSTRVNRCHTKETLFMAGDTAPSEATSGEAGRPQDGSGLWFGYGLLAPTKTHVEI
How it was run: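 Radioligand binding with [^3H]SR 48968 on cryopreserved COS cells expressing human NK2 receptor (5.0×10^5 cells/mL), in 50 mM Tris-HCl pH 7.4 with BSA, MnCl2 and protease inhibitors. Bound label collected on PEI-treated GF/B filters, counted by liquid scintillation; Ki derived from IC50 and radioligand Kd.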

neurokinin NK2 receptor = biological target: T2, neurokinin NK2 receptor (Cavia porcellus, UniProt Q64077); assay: Effect of suppressing neurokinin A-induced airway contraction (in vivo, intratracheal administration); design: species or system guinea pig; settings: guinea pig; guinea pigs, intratracheal administration 60 minutes before 4 μg/kg i.v. NKA; AUC of increase in airway pressure over 10 minutes; read-out: ID50 (the source's name)
T2 construct: Using healthy guinea pigs (body weight, 350 to 550 g; Hartley male guinea pigs); from tissue; host or cells: live anaesthetised Hartley male guinea pigs (airway, in vivo)
T2 sequence (Q64077 1-402): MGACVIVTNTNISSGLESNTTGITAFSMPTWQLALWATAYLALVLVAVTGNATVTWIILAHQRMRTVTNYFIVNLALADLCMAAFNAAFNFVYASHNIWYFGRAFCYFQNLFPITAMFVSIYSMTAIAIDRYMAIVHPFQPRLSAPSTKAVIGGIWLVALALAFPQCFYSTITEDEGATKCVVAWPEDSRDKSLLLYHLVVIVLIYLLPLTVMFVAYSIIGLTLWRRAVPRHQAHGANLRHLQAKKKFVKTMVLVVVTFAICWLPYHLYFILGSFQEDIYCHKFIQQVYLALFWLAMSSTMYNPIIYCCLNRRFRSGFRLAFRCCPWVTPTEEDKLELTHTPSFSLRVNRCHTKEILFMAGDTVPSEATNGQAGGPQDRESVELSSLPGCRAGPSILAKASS
Protocol: Using healthy guinea pigs (body weight, 350 to 550 g; Hartley male guinea pigs), the effect of suppressing airway contraction induced by neurokinin A (NKA), which is an NK2 receptor agonist, was examined by a modified method of Konzett-Roessler (Naunyn-Schmiedebergs Arch. Exp. Pathol. Pharmakol. 195, 71 [1940]) using airway pressure as an indicator.
A tracheal cannula and a venous cannula were attached to a guinea pig anesthetized with pentobarbital (50 mg/mL solution, 0.40 to 0.50 mL/body, subcutaneous administration). An arterial cannula filled with heparin-containing physiological saline (100 U/mL) was further attached, and blood pressure and heart rate were monitored via an amplifier and an instantaneous heart rate meter. Subsequently, gallamine (20 mg/body, intravenous administration) was administered to terminate spontaneous breathing, and 10 mL/kg of positive pressure breathing (Ugo-Basile Biological Research Apparatus, Cat. No. 7025) was rapidly performed at 60 times/min. The airway pressure during artificial breathing was detected with a pressure transducer (TP-200T or TP-400T; Nihon Kohden Corporation) attached to a side branch of the tracheal cannula, amplified (AP-601G; Nihon Kohden Corporation), and recorded in a recorder. After the airway pressure, blood pressure, and heart rate were stabilized, 4 μg/kg of NKA was intravenously administered from the venous cannula to induce airway contraction, and the airway pressure was measured for the following 10 minutes.
The test substance was dissolved in a 5% glucose solution, and a 0.5 mL/kg solution was intratracheally administered with an intratracheal administration apparatus (model 1A-1B; Penn-Century, Inc.) 60 minutes before stimulation with NKA.
The AUC of increase in the airway pressure over 10 minutes after administration of NKA was determined as the intensity of NKA-induced airway contraction and calculated as an ID50 value from the inhibition rate based on the value of the control group (5% glucose solution intratracheal administration group).

[1] = COS cells expressing human NK2 receptor, [3H]SR 48968 1 nM, Ki from IC50 and Kd, read-out: Ki

Structure (SMILES)	Ki (human NK2 receptor; [1]) [nM]	ED50 (neurokinin NK2 receptor) [mg/kg]	Ki (human NK2 receptor) [nM]
CN(CCN1CCC(OC(=O)Nc2ccccc2-c2ccccc2)CC1)C(=O)CCOCCNc1ccc(C(=O)N(C)CCCN(C)C(=O)CO[C@H]2Cc3ccccc3C23CCN(CC[C@@]2(c4ccc(F)cc4)CN(C(=O)c4cc(C(F)(F)F)cc(C(F)(F)F)c4)CO2)CC3)cc1 [Example 29, 1-{2-[{3-[2-({4-[{3-[({[(2S)-1′-{2-[(5R)-3-[3,5-Bis(trifluoromethyl)benzoyl]-5-(4-fluorophenyl)-1,3-oxazolidin-5-yl]ethyl}-2,3-dihydrospiro[indene-1,4′-piperidin]-2-yl]oxy}acetyl)(methy)amino]propyl}(methyl)carbamoyl]phenyl}amino)ethoxy]propanoyl}(methyl)amino]ethyl}piperidin-4-yl biphenyl-2-ylcarbamate trihydrochloride]	0.76	0.0438	–
Cc1cc(NCCCCCC(=O)N(C)CCN2CCC(OC(=O)Nc3ccccc3-c3ccccc3)CC2)sc1C(=O)N(C)CCCN(C)C(=O)CO[C@H]1Cc2ccccc2C12CCN(CC[C@@]1(c3ccc(F)cc3)CN(C(=O)c3cc(C(F)(F)F)cc(C(F)(F)F)c3)CO1)CC2 [Example 30, 1-(2-{[6-({5-[{3-[({[(2S)-1′-{2-[(5R)-3-[3,5-Bis(trifluoromethyl)benzoyl]-5-(4-fluorophenyl)-1,3-oxazolidin-5-yl]ethyl}-2,3-dihydrospiro[indene-1,4′-piperidin]-2-yl]oxy}acetyl)(methyl)amino]propyl}(methyl)carbamoyl]-4-methyl-2-thienyl}amino)hexanoyl](methyl)amino}ethyl)piperidin-4-yl biphenyl-2-ylcarbamate trihydrochloride]	–	0.0632	0.71
CN(CCN1CCC(OC(=O)Nc2ccccc2-c2ccccc2)CC1)C(=O)CCCCNc1ccc(C(=O)N(C)CCCN(C)C(=O)CO[C@H]2Cc3ccccc3C23CCN(CC[C@@]2(c4ccc(F)cc4)CN(C(=O)c4cc(C(F)(F)F)cc(C(F)(F)F)c4)CO2)CC3)cc1 [Example 32, 1-(2-{[5-({4-[{3-[({[(2S)-1′-{2-[(5R)-3-[3,5-Bis(trifluoromethyl)benzoyl]-5-(4-fluorophenyl)-1,3-oxazolidin-5-yl]ethyl}-2,3-dihydrospiro[indene-1,4′-piperidin]-2-yl]oxy}acetyl)(methyl)amino]propyl}(methyl)carbamoyl]phenyl}amino)pentanoyl](methyl)amino}ethyl)piperidin-4-yl biphenyl-2-ylcarbamate trihydrochloride]	–	0.0356	0.74
CN(CCN1CCC(OC(=O)Nc2ccccc2-c2ccccc2)CC1)C(=O)CCCNc1ccc(C(=O)N(C)CCCN(C)C(=O)CO[C@H]2Cc3ccccc3C23CCN(CC[C@@]2(c4ccc(F)cc4)CN(C(=O)c4cc(C(F)(F)F)cc(C(F)(F)F)c4)CO2)CC3)cc1 [Example 34, 1-(2-{[4-({4-[{3-[({[(2S)-1′-{2-[(5R)-3-[3,5-Bis(trifluoromethyl)benzoyl]-5-(4-fluorophenyl)-1,3-oxazolidin-5-yl]ethyl}-2,3-dihydrospiro[indene-1,4′-piperidin]-2-yl]oxy}acetyl)(methyl)amino]propyl}(methyl)carbamoyl]phenyl}amino)butanoyl](methyl)amino}ethyl)piperidin-4-yl biphenyl-2-ylcarbamate trihydrochloride]	–	0.03	0.54
CN(CCN1CCC(OC(=O)Nc2ccccc2-c2ccccc2)CC1)C(=O)CCCN(C)c1ccc(C(=O)N(C)CCCN(C)C(=O)CO[C@H]2Cc3ccccc3C23CCN(CC[C@@]2(c4ccc(F)cc4)CN(C(=O)c4cc(C(F)(F)F)cc(C(F)(F)F)c4)CO2)CC3)cc1 [Example 36, 1-{2-[{4-[{4-[{3-[({[(2S)-1′-{2-[(5R)-3-[3,5-Bis(trifluoromethyl)benzoyl]-5-(4-fluorophenyl)-1,3-oxazolidin-5-yl]ethyl}-2,3-dihydrospiro[indene-1,4′-piperidin]-2-yl]oxy}acetyl)(methyl)amino]propyl}(methyl)carbamoyl]phenyl}(methyl)amino]butanoyl}(methyl)amino]ethyl}piperidin-4-yl biphenyl-2-ylcarbamate trihydrochloride]	–	0.0168	0.96
CN(CCN1CCC(OC(=O)Nc2ccccc2-c2ccccc2)CC1)C(=O)CCCCN(C)c1ccc(C(=O)N(C)CCCN(C)C(=O)CO[C@H]2Cc3ccccc3C23CCN(CC[C@@]2(c4ccc(F)cc4)CN(C(=O)c4cc(C(F)(F)F)cc(C(F)(F)F)c4)CO2)CC3)cc1 [Example 38, 1-{2-[{5-[{4-[{3-[({[(2S)-1′-{2-[(5R)-3-[3,5-Bis(trifluoromethyl)benzoyl]-5-(4-fluorophenyl)-1,3-oxazolidin-5-yl]ethyl}-2,3-dihydrospiro[indene-1,4′-piperidin]-2-yl]oxy}acetyl)(methy)amino]propyl}(methyl)carbamoyl]phenyl}(methyl)amino]pentanoyl}(methyl)amino]ethyl}piperidin-4-yl biphenyl-2-ylcarbamate trihydrochloride]	0.89	0.0253	–
CN(CCN1CCC(OC(=O)Nc2ccccc2-c2ccccc2)CC1)C(=O)CCCCCCN(C)c1ccc(C(=O)N(C)CCCN(C)C(=O)CO[C@H]2Cc3ccccc3C23CCN(CC[C@@]2(c4ccc(F)cc4)CN(C(=O)c4cc(C(F)(F)F)cc(C(F)(F)F)c4)CO2)CC3)cc1 [Example 40, 1-{2-[{7-[{4-[{3-[({[(2S)-1′-{2-[(5R)-3-[3,5-Bis(trifluoromethyl)benzoyl]-5-(4-fluorophenyl)-1,3-oxazolidin-5-yl]ethyl}-2,3-dihydrospiro[indene-1,4′-piperidin]-2-yl]oxy}acetyl)(methyl)amino]propyl}(methyl)carbamoyl]phenyl}(methyl)amino]heptanoyl}(methyl)amino]ethyl}piperidin-4-yl biphenyl-2-ylcarbamate trihydrochloride]	–	0.0573	0.83
CN(CCN1CCC(OC(=O)Nc2ccccc2-c2ccccc2)CC1)C(=O)CCCCCNc1cccc(C(=O)N(C)CCCN(C)C(=O)CO[C@H]2Cc3ccccc3C23CCN(CC[C@@]2(c4ccc(F)cc4)CN(C(=O)c4cc(C(F)(F)F)cc(C(F)(F)F)c4)CO2)CC3)c1 [Example 43, 1-(2-{[6-({3-[{3-[({[(2S)-1′-{2-[(5R)-3-[3,5-Bis(trifluoromethyl)benzoyl]-5-(4-fluorophenyl)-1,3-oxazolidin-5-yl]ethyl}-2,3-dihydrospiro[indene-1,4′-piperidin]-2-yl]oxy}acetyl)(methyl)amino]propyl}(methyl)carbamoyl]phenyl}amino)hexanoyl](methyl)amino}ethyl)piperidin-4-yl biphenyl-2-ylcarbamate trihydrochloride]	–	0.0241	1.3
